We go through 19 compounds from patent publication US8710091B2, “Imidazolidine-2,4-dione derivatives, and use thereof as a cancer drug” (Ipsen Pharma S.A.S., priority 2009, dated 2014).

The test system of one experiment is LNCaP cells. The experiment can be described thus: Anti-proliferative activity on LNCaP in complete medium (WST-1). The conditions noted are these: Homo sapiens, 144 h, 144 h incubation, read-out: IC50 on the LNCaP cells in culture (concentration inhibiting cell proliferation by 50%). The experiment is classed as cell-based. On the procedure:
The anti-proliferative activity of the compounds of the present invention is determined on LNCaP in complete medium by applying the following experimental procedure:
The LNCaP cell type (ATCC, 1740) originating from a prostate carcinoma expressing the androgen receptor, this line is hormone-dependent.
Maintenance of the LNCaP line is carried out in complete culture medium: RPMI, 10% of foetal calf serum, 2 mM glutamine, 100 U/ml penicillin, 0.1 mg/ml of streptomycin and 0.01M HEPES, 1 mM sodium pyruvate, 40% of D-glucose. • Seeding the plates:
The LNCaP line is seeded at 20,000 cells/well in 90 μl of complete medium in 96-well plates coated with poly-D-lysine (Biocoat, Costar). • Treatment of the cells: 24 h after the seeding, the cells are treated with 10 μl/well of compound diluted in the culture medium. Experiments of the effect of doses of the compound are carried out on a scale of 1 nM to 100 µM. The concentrations used are the following: 1 nM/10/30/100/300/1000/3000/10,000/100,000 nM. Testosterone (SIGMA T1500) is used as a reference and tested at the same concentrations. The cells are incubated for 144 h at 37° C., 5% CO2. • Reading: On D6, 10 μL of the “WST-1 cell proliferation” reagent (Roche ref 1644807) is added to each well. After incubation for 2 hours at 37° C., 5% CO2, the absorbance at 450 nm is measured by spectrophotometry (Envision, Perkin Elmer). • Results: The experiments are carried out in duplicate and the best compounds are tested twice. […] 2. Antiproliferative Activity on LNCaP in Medium without Steroids: […]

The subject of a further experiment is DU145 cells. The experiment can be described thus: Antiproliferative activity on DU-145 in complete medium (WST-1). The experiment is classed as cell-based. Conditions: Homo sapiens, 144 h incubation, read-out: IC50 on the DU145 cells in culture (concentration inhibiting cell proliferation by 50%). On the procedure:
The anti-proliferative activity of the compounds of the present invention is determined on DU-145 in complete medium.
Maintenance of the DU-145 line is carried out in DMEM, 10% of foetal calf serum, 2 mM of glutamine, 100 U/ml of penicillin, 0.1 mg/ml of streptomycin. • Seeding the plates: • The DU145 line is seeded at 400 or 800 cells/well in 90 μl of DMEM complete medium in 96-well plates (TPP). • Treatment of the cells: 24 h after the seeding, the cells are treated with 10 μl/well of compound diluted in the culture medium. Experiments showing the dose-effect of the compound are carried out on a scale of 1 nM to 100 μM. The concentrations used are the following: 1 nM/10/30/100/300/1000/3000/10,000/100,000 nM. The cells are incubated for 144 h at 37° C., 5% CO2. • Reading: On D6, 10 μL, of cell proliferation reagent WST-1 (Roche ref 1644807) is added to each well. After incubation for 2 to 4 hours at 37° C., 5% CO2, the absorbance at 450 nm is measured by spectrophotometry (Envision, Perkin Elmer). • Results: The experiments are carried out in duplicate and the best compounds are tested twice. […] 4. Measurement of the Disappearance of the Androgen Receptor
A general note: Formazan colour is commonly taken as a measure of viable cells.

As for `CC1(C)C(=O)N(c2ccc([N+](=O)[O-])c(C(F)(F)F)c2)C(=O)N1CCCCCCCCCS(=N)(=O)CCCC(F)(F)C(F)(F)F` (stereo not drawn) [Example 46, 5,5-dimethyl-3-[4-nitro-3-(trifluoromethyl)phenyl]-1-{9-[S-(4,4,5,5,5-pentafluoropentyl)sulphonimidoyl]nonyl}imidazolidine-2,4-dione], the IC50 in the experiment with LNCaP cells was less than 2 µM.
In the case of `CC1(C)C(=O)N(c2ccc(C(N)=O)c(C(F)(F)F)c2)C(=O)N1CCCCCCCCC[S+]([O-])CCCC(F)(F)C(F)(F)F` (stereo not drawn) [Example 22, 4-(4,4-dimethyl-2,5-dioxo-3-{9-[(4,4,5,5,5-pentafluoropentyl)sulphinyl]nonyl}imidazolidin-1-yl)-2-(trifluoromethyl)benzamide], the figures for the IC50 in the experiment on LNCaP cells and with DU145 cells were less than 2 µM and more than 10 µM, respectively.
As to `Cc1cc(N2C(=O)N(CCCCCCCCCSCCCC(F)(F)C(F)(F)F)C(C)(C)C2=O)ccc1NS(N)(=O)=O` [Example 30, N-[4-(4,4-dimethyl-2,5-dioxo-3-{9-[(4,4,5,5,5-pentafluoropentyl)sulphanyl]nonyl}imidazolidin-1-yl)-2-methylphenyl]sulphamide], the IC50 with LNCaP cells was less than 2 µM; in the experiment on DU145 cells, more than 10 µM.
In the same order, the values of `Cc1cc(N2C(=O)N(CCCCCCCCC[S+]([O-])CCCC(F)(F)C(F)(F)F)C(C)(C)C2=O)ccc1[N+](=O)[O-]` (stereo not drawn) [Example 24, 5,5-dimethyl-3-(3-methyl-4-nitrophenyl)-1-{9-[(4,4,5,5,5-pentafluoropentyl)sulphinyl]nonyl}imidazolidine-2,4-dione] are less than 2 µM and more than 10 µM.
In the same order, the values of `O=C1N(c2ccc([N+](=O)[O-])c(C(F)(F)F)c2)C(=O)C2(CCC2)N1CCCCCCCCC[S+]([O-])CCCC(F)(F)C(F)(F)F` (stereo not drawn) [Example 34, 7-[4-nitro-3-(trifluoromethyl)phenyl]-5-{9-[(4,4,5,5,5-pentafluoropentyl)sulphinyl]nonyl}-5,7-diazaspiro[3.4]octane-6,8-dione] are less than 2 µM and more than 10 µM.
With `CN(C)CC(=O)Nc1ccc(N2C(=O)N(CCCCCCCCCSCCCC(F)(F)C(F)(F)F)C(C)(C)C2=O)cc1C(F)(F)F` [Example 42, N-[4-(4,4-dimethyl-2,5-dioxo-3-{9-[(4,4,5,5,5-pentafluoropentyl)sulphanyl]nonyl}imidazolidin-1-yl)-2-(trifluoromethyl)phenyl]-N^2,N^2-dimethylglycinamide], the IC50 with LNCaP cells was less than 2 µM; with DU145 cells, more than 10 µM.
In the same order, the values of `CC1(C)C(=O)N(c2ccc([N+](=O)[O-])c(C(F)(F)F)c2)C(=O)N1CCCCCCCCC[S+]([O-])CCC(F)(F)C(F)(F)C(F)(F)C(F)(F)F` (stereo not drawn) [Example 15, 5,5-dimethyl-3-[4-nitro-3-(trifluoromethyl)phenyl]-1-{9-[(3,3,4,4,5,5,6,6,6-nonafluorohexyl)sulphinyl]nonyl}imidazolidine-2,4-dione] are less than 2 µM and more than 10 µM.
In the same order, the values of `CCC(C)NC(=O)Nc1ccc(N2C(=O)N(CCCCCCCCC[S+]([O-])CCCC(F)(F)C(F)(F)F)C(C)(C)C2=O)cc1C` (stereo not drawn) [Example 28, 1-[4-(4,4-dimethyl-2,5-dioxo-3-{9-[(4,4,5,5,5-pentafluoropentyl)sulphinyl]nonyl}imidazolidin-1-yl)-2-methylphenyl]-3-(1-methylpropyl)urea] are less than 2 µM and more than 10 µM.
In the same order, the values of `CC1(C)C(=O)N(c2ccc([N+](=O)[O-])c(C(F)(F)F)c2)C(=O)N1CCCCCSCCCC(F)(F)C(F)(F)F` [Example 4, 5,5-dimethyl-3-[4-nitro-3-(trifluoromethyl)phenyl]-1-{5-[(4,4,5,5,5-pentafluoropentyl)thio]pentyl}imidazolidine-2,4-dione] are less than 2 µM and more than 10 µM.
For the compound `Cc1cc(N2C(=O)N(CCCCCCCCC[S+]([O-])CCCC(F)(F)C(F)(F)F)C(C)(C)C2=O)ccc1NS(N)(=O)=O` (stereo not drawn) [Example 31, N-[4-(4,4-dimethyl-2,5-dioxo-3-{9-[(4,4,5,5,5-pentafluoropentyl)sulphinyl]nonyl}imidazolidin-1-yl)-2-methylphenyl]sulphamide], the IC50 was less than 2 µM in the experiment on LNCaP cells and more than 10 µM in the experiment with DU145 cells.
Take `CC1(C)C(=O)N(c2ccc([N+](=O)[O-])c(C(F)(F)F)c2)C(=O)N1CCCCCCCC[S+]([O-])CCCC(F)(F)C(F)(F)F` (stereo not drawn) [Example 7, 5,5-dimethyl-3-[4-nitro-3-(trifluoromethyl)phenyl]-1-{8-[(4,4,5,5,5-pentafluoropentyl)sulphinyl]octyl}imidazolidine-2,4-dione]: the IC50 was less than 2 µM in the experiment on LNCaP cells and more than 10 µM in the experiment with DU145 cells.
In the case of `CC1(C)C(=O)N(c2ccc([N+](=O)[O-])c(C(F)(F)F)c2)C(=O)N1CCCCCCCCCSCCCC(F)(F)C(F)(F)F` [Example 1, 5,5-dimethyl-3-[4-nitro-3-(trifluoromethyl)phenyl]-1-{9-[(4,4,5,5,5-pentafluoropentyl)thio]nonyl}imidazolidine-2,4-dione], the IC50 was less than 2 µM with LNCaP cells and more than 10 µM in the experiment on DU145 cells.
In the same order, the values of `CC1(C)C(=O)N(c2ccc([N+](=O)[O-])c(C(F)(F)F)c2)C(=O)N1CCOCCOCC[S+]([O-])CCCC(F)(F)C(F)(F)F` (stereo not drawn) [Example 37, 5,5-dimethyl-3-[4-nitro-3-(trifluoromethyl)phenyl]-1-[2-(2-{2-[(4,4,5,5,5-pentafluoropentyl)sulphinyl]ethoxy}ethoxy)ethyl]imidazolidine-2,4-dione] are less than 2 µM and more than 10 µM.
In the same order, the values of `CC1(C)C(=O)N(c2ccc([N+](=O)[O-])c(C(F)(F)F)c2)C(=O)N1CCCCCCCCCCC[S+]([O-])CCCC(F)(F)C(F)(F)F` (stereo not drawn) [Example 11, 5,5-dimethyl-3-[4-nitro-3-(trifluoromethyl)phenyl]-1-{11-[(4,4,5,5,5-pentafluoropentyl)sulphinyl]undecyl}imidazolidine-2,4-dione] are less than 2 µM and more than 10 µM.
In the same order, the values of `Cc1cc(N2C(=O)N(CCCCCCCCCS(=O)(=O)CCCC(F)(F)C(F)(F)F)C(C)(C)C2=O)ccc1NS(N)(=O)=O` [Example 32, N-[4-(4,4-dimethyl-2,5-dioxo-3-{9-[(4,4,5,5,5-pentafluoropentyl)sulphonyl]nonyl}imidazolidin-1-yl)-2-methylphenyl]sulphamide] are less than 2 µM and more than 10 µM.
For `Cc1cc(N2C(=O)N(CCCCCCCCC[S+]([O-])CCCC(F)(F)C(F)(F)F)C(C)(C)C2=O)ccc1N` (stereo not drawn) [Example 26, 3-(4-amino-3-methylphenyl)-5,5-dimethyl-1-{9-[(4,4,5,5,5-pentafluoropentyl)sulphinyl]nonyl}imidazolidine-2,4-dione], the IC50 in the experiment with DU145 cells was more than 10 µM.
With `CC(=O)N(C)c1ccc(N2C(=O)N(CCCCCCCCC[S+]([O-])CCCC(F)(F)C(F)(F)F)C(C)(C)C2=O)cc1C(F)(F)F` (stereo not drawn) [Example 40, N-[4-(4,4-dimethyl-2,5-dioxo-3-{9-[(4,4,5,5,5-pentafluoropentyl)sulphinyl]nonyl}imidazolidin-1-yl)-2-(trifluoromethyl)phenyl]-N-methylacetamide], the figures for the IC50 in the experiment with LNCaP cells and with DU145 cells were less than 2 µM and more than 10 µM, respectively.
In the same order, the values of `CC1(C)C(=O)N(c2ccc(C#N)c(C(F)(F)F)c2)C(=O)N1CCCCCCCCC[S+]([O-])CCCC(F)(F)C(F)(F)F` (stereo not drawn) [Example 20, 4-(4,4-dimethyl-2,5-dioxo-3-{9-[(4,4,5,5,5-pentafluoropentyl)sulphinyl]nonyl}imidazolidin-1-yl)-2-(trifluoromethyl)benzonitrile] are less than 2 µM and more than 10 µM.
In the same order, the values of `CC1(C)C(=O)N(c2ccc([N+](=O)[O-])c(C(F)(F)F)c2)C(=O)N1CCCCCCCCCS(=O)(=O)CCCC(F)(F)C(F)(F)F` [Example 3, 5,5-dimethyl-3-[4-nitro-3-(trifluoromethyl)phenyl]-1-{9-[(4,4,5,5,5-pentafluoropentyl)sulphonyl]nonyl}imidazolidine-2,4-dione] are less than 2 µM and more than 10 µM.
